Patent publication US20130034522A1, “THERAPIES FOR TREATING HEPATITIS C VIRUS INFECTION” (priority 2010, published 2013)
Where two headings read alike, the source gives them in different places.

Columns and labels:
[1] = Study VX-222-102 Part A: VX-222 for 3 days in HCV infected subjects (PK, safety); assay type: in vivo, human; conditions: for AUC(0-t) / concentration at 12 h / Cmax / Tmax / half-life: human, in vivo; for AUC(0-t): read-out: AUC0-12 hr Geometric Mean; for concentration at 12 h: read-out: C12 Geometric Mean; for Cmax: read-out: Cmax Geometric Mean; for half-life: read-out: T1/2 Arithmetic Mean (converted)
Description: (§1) In Part A of Study 102 subjects were randomized to VX-222 or placebo in a 6:2 (VX-222: placebo) allocation ratio to either Cohort 1, Cohort 2, Cohort 3, or Cohort 4. Subjects enrolled in Cohort 1, Cohort 2, and Cohort 3 were administered 250 mg, 500 mf, or 750 mg VX-222 or placebo twice daily (b.i.d.) for 3 days, respectively. Subjects enrolled in Cohort 4 were administered 1,500 mg VX-222 or placebo once daily (qd) for 3 days. Standard of care treatment, Peg-IFN-alpha-2a and RBV was offered to the subjects at the end of dosing in Part A for up to 48 weeks, if judged appropriate by the physician.
(§2) Additional results of Study VX-222-102 are described in FIGS. 2-8: Thirty-two treatment-naïve patients with chronic genotype 1 HCV infection were enrolled in the trial, including six patients in each dose group who received 250 mg of VX-222 BID, 500 mg of VX-222 BID, 750 mg of VX-222 BID, and 1,500 mg of VX-222 QD. Two patients received placebo in each of the four dosing groups, for a total of eight patients who received placebo. Part A of the trial was conducted at 10 centers in the United States, Canada and Argentina. Of the patients enrolled in the trial, 24 patients had genotype 1a HCV infection and eight patients had genotype 1b HCV infection. Six of the patients enrolled in the trial were African American, 25 were Caucasian and one was American Indian/Alaskan.
(§3) Multicenter, randomized, double-blinded, placebo-controlled, dose-ranging study • HCV genotype 1-infected patients • With no evidence of cirrhosis • ALT values <5×ULM • Plasma HCV RNA of >5 log10 IU/mL at screening • 4-arm comparative study (6:2 randomization VX-222: placebo) • Enrollment in this dosing—ranging study was sequential • 250 mg BID for 3 days • 500 mg BID for 3 days • 750 mg BID for 3 days • 1500 mg QD for 3 days.

[2] = system: genotype 1 HCV; experiment: Study VX-222-102 Part A: plasma HCV RNA reduction; assay type: in vivo, Hepatitis C virus
Description: as §1, §2, §3

[3] = PK parameters of VX-222 in Study 101 Part C and Study 102 Part A; assay type: in vivo, human
Description: In Part C of Study 101, VX-222 was administered as multiple doses of 750 mg b.i.d. to treatment-naïve subjects with chronic hepatitis C for 3 days. In addition, in Part A of Study 102, VX-222 was administered as multiple doses ranging from 250 mg to 750 mg BID and 1500 mg once a day to treatment-naïve subjects with chronic hepatitis C for 3 days.

[4] = system: genotype 1 chronic hepatitis C infection; experiment: Study 101 Part C: pharmacodynamics of VX-222 (HCV plasma RNA); assay type: in vivo, Hepatitis C virus; conditions: 750 mg b.i.d. for 3 consecutive days, treatment-naïve genotype 1 subjects
Description: In Part C of Study 101, VX-222 was administered as multiple doses of 750 mg b.i.d. to treatment-naïve subjects with chronic hepatitis C for 3 days. In addition, in Part A of Study 102, VX-222 was administered as multiple doses ranging from 250 mg to 750 mg BID and 1500 mg once a day to treatment-naïve subjects with chronic hepatitis C for 3 days. A primary objective of Part C of Study 101 was to assess the pharmacodynamics of VX-222 in treatment-naïve subjects with genotype 1 chronic hepatitis C infection. The final pharmacodynamic parameters of VX-222 administered at 750 mg b.i.d. for 3 consecutive days are outlined below: • The mean untransformed baseline (Day 1) HCV plasma RNA level was 4962600 IU/mL (log10=6.4927). • The mean maximum reduction from baseline calculated using the log10 predose HCV plasma RNA on Days 2 to 4 was −3.6784. The correlation between the predose RNA levels and the amplitude of the reduction in log 10 HCV RNA was relatively weak.

[5] = in vitro IC90 of VX-222
[6] = Study VX-222-002: combination treatment with VX-222 and VX-950 in healthy subjects (PK, safety); conditions: for AUC(0-t) / Cmax / half-life: human, plasma, oral; for AUC(0-t) / Cmax: geometric mean (CV %)
[7] = all four dose groups, blinded pooled data placebo or VX-222
[8] = 250 mg, 250 mg b.i.d., Day 1, HCV infected subjects
[9] = 250 mg, 250 mg b.i.d., Day 3, HCV infected subjects
[10] = 500 mg, 500 mg b.i.d., Day 1, HCV infected subjects
[11] = 500 mg, 500 mg b.i.d., Day 3, HCV infected subjects
[12] = 750 mg, 750 mg b.i.d., Day 1, HCV infected subjects
[13] = 750 mg, 750 mg b.i.d., Day 3, HCV infected subjects
[14] = multiple doses, treatment-naïve chronic hepatitis C subjects
[15] = VX-222 400 mg BID with VX-950 1125 mg BID, Day 37, healthy subjects, fed

CC1CCC(C(=O)N(c2cc(C#CC(C)(C)C)sc2C(=O)O)C2CCC(O)CC2)CC1 (stereo not drawn) [VX-222, 5-(3,3-Dimethylbut-1-ynyl)-3-[(trans-4-hydroxycyclohexyl)-(4-trans methylcyclohexanecarbonyl)amino]thiophene-2-carboxylic acid]
severe or serious events ([1]; 250, 500 or 750 mg b.i.d. for 3 days, genotype 1 chronic hepatitis C subjects): no reported severe or serious events | VX-222 exposures versus dose ([1]; 250-750 mg BID and 1500 mg QD, FIG. 7): increased with doses in an approximately proportional manner | severe or serious adverse events [1, 7]: no severe or serious adverse events were reported | tolerability [1, 7]: well-tolerated | AUC(0-t) [1, 8]: 11700 ng·h/mL | concentration at 12 h [1, 8]: 858 ng/mL | Cmax [1, 8]: 1810 ng/mL | Tmax ([1]; 250 mg, 250 mg b.i.d., Day 1, HCV infected subjects, read-out: tmax Median): 6 h | AUC(0-t) [1, 9]: 19500 ng·h/mL | concentration at 12 h [1, 9]: 728 ng/mL | Cmax [1, 9]: 2960 ng/mL | Tmax ([1]; 250 mg, 250 mg b.i.d., Day 3, HCV infected subjects, read-out: tmax Median): 4 h | AUC(0-t) [1, 10]: 22900 ng·h/mL | concentration at 12 h [1, 10]: 767 ng/mL | Cmax [1, 10]: 4360 ng/mL | Tmax ([1]; 500 mg, 500 mg b.i.d., Day 1, HCV infected subjects, read-out: tmax Median): 3 h | AUC(0-t) [1, 11]: 29800 ng·h/mL | concentration at 12 h [1, 11]: 858 ng/mL | Cmax [1, 11]: 5040 ng/mL | Tmax ([1]; 500 mg, 500 mg b.i.d., Day 3, HCV infected subjects, read-out: tmax Median): 2.5 h | AUC(0-t) [1, 12]: 43600 ng·h/mL | concentration at 12 h [1, 12]: 1690 ng/mL | Cmax [1, 12]: 6520 ng/mL | Tmax ([1]; 750 mg, 750 mg b.i.d., Day 1, HCV infected subjects, read-out: tmax Median): 3 h | AUC(0-t) [1, 13]: 63000 ng·h/mL | concentration at 12 h [1, 13]: 1680 ng/mL | Cmax [1, 13]: 10300 ng/mL | Tmax ([1]; 750 mg, 750 mg b.i.d., Day 3, HCV infected subjects, read-out: tmax Median): 2 h | Tmax ([1]; post dose, 250-750 mg BID and 1500 mg QD, FIG. 7, read-out: Tmax): 2 to 6 h | half-life ([1]; 250 mg b.i.d., Day 3, HCV infected subjects): 4.1 h | half-life ([1]; 500 mg b.i.d., Day 3, HCV infected subjects): 4 h | half-life ([1]; 750 mg b.i.d., Day 3, HCV infected subjects): 3.5 h | mean HCV RNA decline after three days of dosing ([2]; 250 mg BID): 3.1 log10 | Mean Viral Load Reduction at Day 4 ([2]; 250 mg b.i.d. for 3 days): −3.1 | mean HCV RNA decline after three days of dosing ([2]; 500 mg BID): 3.4 log10 | Mean Viral Load Reduction at Day 4 ([2]; 500 mg b.i.d. for 3 days): −3.4 | mean HCV RNA decline after three days of dosing ([2]; 750 mg BID): 3.2 log10 | Mean Viral Load Reduction at Day 4 ([2]; 750 mg b.i.d. for 3 days): −3.2 | mean HCV RNA decline after three days of dosing ([2]; 1,500 mg QD): 3.4 log10 | Mean Viral Load Reduction at Day 4 ([2]; 1,500 mg QD for 3 days): −3.4 | mean log HCV RNA decrease on Day 4 ([2]; Cohort 1, 250 mg b.i.d.): 3.1 log | mean log HCV RNA decrease on Day 4 ([2]; Cohort 2, 500 mg b.i.d.): 3.4 log | mean log HCV RNA decrease on Day 4 ([2]; Cohort 3, 750 mg b.i.d.): 3.2 log | mean log HCV RNA decrease on Day 4 ([2]; Cohort 4, 1,500 mg once a day): 3.6 log | mean reductions in plasma HCV RNA ([2]; across the four VX-222 dose groups): greater than 3 log10 | VX-222 exposures versus dose ([3]; 250 to 750 mg b.i.d.): increased in an approximately dose proportional manner | mean t1/2 across doses ([3]; all doses): remained unchanged across all doses | VX-222 concentrations at the end of the dosing intervals ([3]; all subjects): > 319 ng/mL | accumulation index ([3]; b.i.d. regimens): around 2 fold | half-life ([3]; human, in vivo): ~5 h | Tmax ([3]; human, in vivo, read-out: median tmax at steady state): 2 to 6 h | exposures in treatment-naïve HCV subjects compared to healthy subjects ([3]; in vivo): around 2 fold | accumulation index for AUC [3, 14]: 1.90 fold | accumulation index for Cmax [3, 14]: 1.75 fold | time to steady state ([3]; repeated measure analyses): ≤ 3 days | mean maximum reduction from baseline, log10 predose HCV plasma RNA on Days 2 to 4 [4]: −3.6784 | in vitro IC90 [5]: 0.319 µg/mL | Tmax [6, 15]: 4 [4,6] hr | VX-222 plasma exposures ([6]; co-administered with VX-950, healthy subjects): increased | VX-222 administered with VX-950 versus VX-222 alone ([6]; healthy subjects): 2 fold | AUC(0-t) ([6]; 400 mg, AUC0-12, VX-222 400 mg BID alone, Day 10, healthy subjects, fed): 8560 ng·h/mL | Cmax ([6]; 400 mg, VX-222 400 mg BID alone, Day 10, healthy subjects, fed): 1770 ng/mL | half-life ([6]; 400 mg, T1/2, VX-222 400 mg BID alone, Day 10, healthy subjects, fed): 2.7 h | AUC(0-t) ([6]; 1000 mg, AUC0-12, VX-222 1000 mg BID alone, Day 10, healthy subjects, fed): 25800 ng·h/mL | Cmax ([6]; 1000 mg, VX-222 1000 mg BID alone, Day 10, healthy subjects, fed): 4120 ng/mL | half-life ([6]; 1000 mg, T1/2, VX-222 1000 mg BID alone, Day 10, healthy subjects, fed): 4 h | AUC(0-t) ([6]; AUC0-12, VX-222 400 mg BID with VX-950 1125 mg BID, Day 37, healthy subjects, fed): 29500 ng·h/mL | AUC(0-t) ([6]; AUC0-12, VX-222 1000 mg BID with VX-950 1125 mg BID, Day 37, healthy subjects, fed): 59900 ng·h/mL | Cmax [6, 15]: 3950 ng/mL | Cmax ([6]; VX-222 1000 mg BID with VX-950 1125 mg BID, Day 37, healthy subjects, fed): 8150 ng/mL | half-life ([6]; T1/2, VX-222 400 mg BID with VX-950 1125 mg BID, Day 37, healthy subjects, fed): 5.4 h | half-life ([6]; T1/2, VX-222 1000 mg BID with VX-950 1125 mg BID, Day 37, healthy subjects, fed): 3.5 h
